Laboratory results taken from patent US12332244B2, “Composition for diagnosing diseases associated with COX2 overexpression and screening method therefor” (KYUNGPOOK NATIONAL UNIVERSITY INDUSTRY-ACADEMIC COOPERATION …, priority 2018, dated 2025).

Columns and labels:
[1] = Brain distribution after oral or intravenous administration to normal mice; type: in vivo, mouse; conditions: for Kp: mouse, brain, FIG. 4C
Description: FIGS. 4A to 4C illustrate a result of showing a concentration remaining in the brain for each time period after oral (p.o. 10 mg/kg) or intravenous administration (i.v. 1 mg/kg) of N-acetyl sphingosine to normal mice (FIG. 4A), a result of showing a concentration remaining in the brain after 24 hours (FIG. 4B), and a pharmacokinetic test analysis result for a brain distribution (FIG. 4C) (n=3/group).
In order to apply the compounds of the present invention to the diagnosis of degenerative brain diseases, it is important to distribute the compounds well to the brain after administration. To confirm this, the N-AS was administered orally (10 mg/kg) or through tail vein (1 mg/kg), and then the brain was extracted by time to measure the concentration of N-AS, and after 24 hours, the brain was extracted to measure the concentration of the remaining N-AS.

wild type COX2 = biological target: T1, wild type COX2 (Homo sapiens, UniProt P35354); assay: Filter binding assay / enzymatic analysis of COX2, wild type; conditions: [14C]N-acetyl sphingosine binding to wild-type COX2, saturation plot; FIG. 3
T1 sequence (P35354 18-604): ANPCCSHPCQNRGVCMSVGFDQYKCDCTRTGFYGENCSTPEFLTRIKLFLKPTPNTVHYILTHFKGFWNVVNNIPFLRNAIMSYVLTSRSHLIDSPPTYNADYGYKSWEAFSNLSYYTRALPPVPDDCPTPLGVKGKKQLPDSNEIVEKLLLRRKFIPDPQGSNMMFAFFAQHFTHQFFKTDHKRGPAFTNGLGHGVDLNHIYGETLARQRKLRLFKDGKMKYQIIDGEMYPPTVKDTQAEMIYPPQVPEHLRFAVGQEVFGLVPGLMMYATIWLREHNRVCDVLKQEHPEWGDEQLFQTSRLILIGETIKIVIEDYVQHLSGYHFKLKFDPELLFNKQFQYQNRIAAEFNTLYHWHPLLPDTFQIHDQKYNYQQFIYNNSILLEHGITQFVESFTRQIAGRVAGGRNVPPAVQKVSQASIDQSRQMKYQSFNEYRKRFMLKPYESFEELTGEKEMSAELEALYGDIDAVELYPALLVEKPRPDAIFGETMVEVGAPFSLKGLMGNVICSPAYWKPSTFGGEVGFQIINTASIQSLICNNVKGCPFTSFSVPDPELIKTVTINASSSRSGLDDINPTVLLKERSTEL
Description: The binding activity of wild type COX2 or mutant COX2 (N181A, T564A, S565A, S567A) and N-acetyl sphingosine (N-AS) was analyzed by filter binding assay (Nat Commun. 2018 Apr. 16; 9(1):1479).
The binding rate (Vbinding) of [^14C]N-acetyl sphingosine (American Radiolabeled Chemicals, ARC1024) to wild-type COX2 and mutant COX2 (N181A, T564A, S565A, S567A) was expressed as the concentration of N-acetyl sphingosine. […] By using the calculated Kcat and KM, Kcat/KM (catalytic efficiency), which has been widely used as a measure of enzyme performance, was calculated from wild-type COX2 and mutant-type COX2 (N181A, T564A, S565A, S567A).

[2] = biological target: T2, COX2 protein in neuroblastoma SH-SY5Y (Homo sapiens, UniProt P35354); assay: [14C] bound to COX2 immunoprecipitated from neuroblastoma SH-SY5Y cells treated with [14C]N-acetyl sphingosine; type: cell-based; conditions: neuroblastoma SH-SY5Y compared to control; 2 μCi; after 1 hour; FIG. 8
T2 construct: endogenous in cells; host or cells: SH-SY5Y neuroblastoma cells
T2 sequence (P35354 18-604): T1 sequence (P35354 18-604)
Description: In addition, neuroblastoma SH-SY5Y was treated with 2 μCi of [^14C]N-acetyl sphingosine (American Radiolabeled Chemicals, ARC1024) for 1 hour, and then cells were collected.
(§1) The COX2 protein of isolated microglia and neuroblastoma SH-SY5Y were isolated by immunoprecipitation, and then liquid scintillation counting was performed on [^14C].
In other words, [^14C]N-acetyl sphingosine ([^14C]N-AS), in which carbon of N-AS strongly binding to COX2 was substituted with an isotope, was treated to the cancer cells (2 μCi). After 1 hour, the COX2 was isolated from the control and the cancer cells, neuroblastoma SH-SY5Y by immunoprecipitation, and the amount of COX2 labeled with [^14C] was confirmed.

[3] = biological target: T3, COX2 protein in microglia (Mus musculus, UniProt Q05769); assay: [14C] bound to COX2 immunoprecipitated from microglia after oral [14C]N-acetyl sphingosine; type: in vivo; conditions: 5-month-old APP/PS1 Alzheimer's animal model compared to control (WT); 10 μCi oral; after 1 hour; FIG. 6
T3 construct: from tissue; host or cells: microglia isolated from the cerebrum of wild-type and APP/PS1 mice (C57BL/6 background)
T3 sequence (Q05769 18-604): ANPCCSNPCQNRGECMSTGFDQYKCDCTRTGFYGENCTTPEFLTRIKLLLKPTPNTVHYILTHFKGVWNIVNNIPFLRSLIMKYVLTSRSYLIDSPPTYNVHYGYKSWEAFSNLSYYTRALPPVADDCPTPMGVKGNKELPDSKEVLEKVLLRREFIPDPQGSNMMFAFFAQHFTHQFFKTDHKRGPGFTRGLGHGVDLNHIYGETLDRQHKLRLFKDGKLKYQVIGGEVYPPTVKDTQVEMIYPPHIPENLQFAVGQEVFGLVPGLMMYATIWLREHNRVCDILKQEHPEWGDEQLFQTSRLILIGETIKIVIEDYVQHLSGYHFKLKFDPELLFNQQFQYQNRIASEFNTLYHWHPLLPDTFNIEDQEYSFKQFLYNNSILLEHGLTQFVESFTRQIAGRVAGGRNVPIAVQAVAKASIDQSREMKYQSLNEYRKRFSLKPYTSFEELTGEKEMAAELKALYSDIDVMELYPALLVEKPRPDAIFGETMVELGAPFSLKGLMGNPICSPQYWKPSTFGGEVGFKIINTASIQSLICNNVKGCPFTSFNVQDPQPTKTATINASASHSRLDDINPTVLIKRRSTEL
From the text: Mouse experiments have been approved by the Kyungpook National University Institutional Animal Care and Use Committee (IACUC). A transgenic mouse line overexpressing APPswe (hAPP695swe) or PS1 (presenilin-1M146V) based on C57BL/6 mice (Charles River, UK) was used [Hereinafter, “APP mouse”: refers to a mouse overexpressing APPswe, “PS1 mouse”: refers to a mouse overexpressing presenilin-1M146V; GlaxoSmithKline]
After oral administration of 10 μCi of [^14C]N-acetyl sphingosine (American Radiolabeled Chemicals, ARC1024) to 5-month-old wild-type and APP/PS1 mice, microglia were isolated from the cerebra of the mice after 1 hour.
as §1
After 1 hour, the COX2 in microglia was isolated from the control and the Alzheimer's animal model by immunoprecipitation, and the amount of COX2 labeled with [^14C] was confirmed.

| SMILES | Kp ([1]; intravenous, tail vein administration 1 mg/kg) | Kp ([1]; oral administration 10 mg/kg) | concentration of N-AS in the brain ([1]; oral 10 mg/kg or tail vein 1 mg/kg, by time and after 24 hours, FIGS. 4A and 4B) | Kcat (wild type COX2) | amount of [14C]-labeled COX2 in cancer cells [2] | amount of [14C]-labeled COX2 in microglia [3] |
| --- | --- | --- | --- | --- | --- | --- |
| CCCCCCCCCCCCC/C=C/[C@@H](O)[C@H](CO)NC(C)=O [N-AS, N-acetyl sphingosine] | 2.16 | 3.18 | high | 0.008 s⁻¹ |  |  |
| CCCCCCCCCCCCC/C=C/[C@@H](O)[C@H](CO)N[14C](C)=O [[^14C]N-AS, [^14C]N-acetyl sphingosine] |  |  |  |  | increased | increased |
